Assay results taken from patent publication US9580411B2, “Substituted sulfonamide compounds” (Hoffmann-La Roche Inc., priority 2012, dated 2017).

target: hTRPA1 (Homo sapiens (Human), UniProt O75762); test: Dose response calcium flux assay (FLIPR), ChanTest hTRPA1-CHO stably transfected cell line; type: cell-based; settings: CHO-K1 Tet-On human TRPA1 cells, cinnamaldehyde agonist (final 100 uM)
Procedure: IC50 Determinations of Exemplified Compounds Dose Response Assay: Chan Test hTRPA1-CHO Stably Transfected Cell Line
CHO-K1 Tet-On_HOMSA_TRPA1_Clone_20
Chinese Hamster Ovary cells, inducible expression
• Ham's F-12 with 10% tetracycline-free FBS • 1× penicillin-streptomycin • 1× glutamax • 0.01 mg/ml Blasticidin • 0.40 mg/ml Zeocin • The cell line doubling rate was ˜15 hours. […] Experiments were run at 24 hours post induction. Plating Conditions CHOK1/TRPA1 Cells: • Harvested cells with 0.025% trypsin/EDTA. • Resuspended cells in growth media without selection antibiotics. • Measured cell density and diluted to 2.4×10^5 cells/ml in media containing 1 ug/ml Doxycycline Plate 25 ul/well into 384 well black/clear tissue culture-treated plates. • Incubated overnight at 37° C. Calcium Flux Assay: Day of Assay: Reagents: • Replacement Buffer: Hank's Balanced Salt Solution, 20 mM HEPES along with 0.005% BSA and 2× Probenecid • Dye Loading Buffer: Cal-3 NW Calcium dye was prepared by dissolving the contents of one vial with […] Hank's Balanced Salt Solution containing 20 mM HEPES. • Control compounds for CHOK1/TRPA1 cells: AP-18, stock 10 mM, prepare 3.5× compound dilution in a Compound Buffer (HBSS/20 mM HEPES/0.005% BSA)—final concentration 10 uM. • Preparation of Cinnamaldehyde (agonist addition): FW=132.16 • Specific gravity=1.046 gm/cc • 1.32 gm/1.046 gm/cc=1.26 ml of stock • Add 1.74 ml DMSO=3.3 M stock • Working solution 4.5× (final 100 uM in Compound Buffer: HBSS/20 mM HEPES/0.005% BSA) • Compounds dilutions were prepared from 5 or 10 mM stock (100% DMSO): • Adjustments of volumes and concentrations were made at time of titration to reflect desired final assay concentrations. • Compounds were tested at either 20 μM three folds dilution 11 steps out or 30 μM two folds dilution 11 steps out. • 3 μl of diluted compound were transferred into Weidmann 384-well plate in duplicates side-by-side. • Compound plates were resuspended with 100 ul of HBSS/20 mM HEPES/0.005% BSA buffer (Compound Buffer): • column 1A-H: buffer/DMSO (bk) • column 2A-H: AP-18 (control antagonist for CHOK1 TRPA1 cells) • column 1I-P: ATP (control for CHOK1 teton cells) • column 2 I-P: 2APB (control antagonist for CHOK1/TRPM8 cells). Growth media was removed from the cell plates (20 ul) and 20 ul of the Replacement Buffer was added followed by addition of 25 ul of diluted dye. All three steps were performed using a Plate Washer BioTek 407. The plates were then incubated for 30′ at RT.
After incubation, both the cell and compound plates were brought to the FLIPR and 20 ul of the diluted compounds/antagonist/bk were transferred to the cell plates by the FLIPR. Plates were then incubated for 30′ at room temperature. After 30′ incubation, plates were returned to the FLIPR and 20 ul of 4.5× Cinnamaldehyde was added to the cell plates. During the compound addition as well as agonist addition, fluorescence readings were taken simultaneously from all 384 wells of the cell plate every 1.5 seconds. Five readings were taken to establish a stable baseline, then 20 ul of sample was rapidly (30 ul/sec) and simultaneously added to each well of the cell plate. The fluorescence was continuously monitored before, during and after sample/agonist addition for a total elapsed time of 100 seconds (compound addition) and 120 seconds (agonist addition). Responses (increase in peak fluorescence) in each well following agonist addition was determined. The initial fluorescence reading from each well, prior to ligand stimulation, was used a zero baseline value for the data from that well.

hTRPA1, sequence (O75762 whole entry): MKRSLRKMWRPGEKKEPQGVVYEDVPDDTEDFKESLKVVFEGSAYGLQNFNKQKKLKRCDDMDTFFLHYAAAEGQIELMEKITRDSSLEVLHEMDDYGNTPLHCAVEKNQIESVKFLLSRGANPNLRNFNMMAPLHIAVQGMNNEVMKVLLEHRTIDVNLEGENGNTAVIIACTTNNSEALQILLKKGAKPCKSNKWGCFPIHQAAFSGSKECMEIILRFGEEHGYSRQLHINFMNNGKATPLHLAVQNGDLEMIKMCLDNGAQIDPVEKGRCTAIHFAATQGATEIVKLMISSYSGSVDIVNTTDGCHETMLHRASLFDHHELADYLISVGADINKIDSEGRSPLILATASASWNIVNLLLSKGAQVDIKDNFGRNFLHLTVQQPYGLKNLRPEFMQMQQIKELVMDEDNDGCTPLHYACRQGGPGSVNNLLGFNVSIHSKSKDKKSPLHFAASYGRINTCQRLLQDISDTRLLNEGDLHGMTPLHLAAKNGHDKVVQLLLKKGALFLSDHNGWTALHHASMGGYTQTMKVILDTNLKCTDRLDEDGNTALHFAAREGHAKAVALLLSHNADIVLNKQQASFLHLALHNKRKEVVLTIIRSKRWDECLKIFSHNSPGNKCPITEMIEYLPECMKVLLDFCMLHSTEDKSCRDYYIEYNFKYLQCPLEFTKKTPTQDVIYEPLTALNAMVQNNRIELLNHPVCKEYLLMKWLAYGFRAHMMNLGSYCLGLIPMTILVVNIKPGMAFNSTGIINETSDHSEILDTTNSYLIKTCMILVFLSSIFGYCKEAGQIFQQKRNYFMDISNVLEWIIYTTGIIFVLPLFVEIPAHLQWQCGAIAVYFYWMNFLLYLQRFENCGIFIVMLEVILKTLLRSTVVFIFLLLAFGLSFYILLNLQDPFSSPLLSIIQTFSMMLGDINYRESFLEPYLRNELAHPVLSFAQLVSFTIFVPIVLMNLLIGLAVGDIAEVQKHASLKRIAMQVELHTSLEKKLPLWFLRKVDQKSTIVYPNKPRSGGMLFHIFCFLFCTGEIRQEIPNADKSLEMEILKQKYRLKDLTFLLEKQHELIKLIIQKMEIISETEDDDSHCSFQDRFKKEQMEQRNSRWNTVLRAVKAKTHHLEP

Compound	IC50 [nM]
CN(CC(=O)NCc1cccc(-c2ccc(C(F)(F)F)cc2)c1F)S(=O)(=O)c1ccc(F)cc1 [Example 9, 2-[(4-Fluoro-benzenesulfonyl)-methyl-amino]-N-(2-fluoro-4′-trifluoromethyl-biphenyl-3-ylmethyl)-acetamide]	1500
CN(CC(=O)NCc1cccc(-c2ccc(C(F)(F)F)cc2)c1)S(=O)(=O)c1ccc(F)cc1 [Example 1, 2-[(4-Fluoro-benzenesulfonyl)-methyl-amino]-N-(4′-trifluoromethyl-biphenyl-3-ylmethyl)-acetamide]	81
CC(C)N(CC(=O)NCc1cccc(-c2ccc(C(F)(F)F)nn2)c1)S(=O)(=O)c1ccc(Cl)nc1 [Example 73, 2-[(6-Chloro-pyridine-3-sulfonyl)-isopropyl-amino]-N-[3-(6-trifluoromethyl-pyridazin-3-yl)-benzyl]-acetamide]	682
CC(C)N(CC(=O)NCc1cc(-c2ccc(C(F)(F)F)cc2)ncn1)S(=O)(=O)c1ccc(Cl)nc1 [Example 64, 2-[(6-Chloro-pyridine-3-sulfonyl)-isopropyl-amino]-N-[6-(4-trifluoromethyl-phenyl)-pyrimidin-4-ylmethyl]-acetamide]	83
CC(C)[C@@H](C(=O)NCc1cccc(-c2ccc(C(F)(F)F)cc2)c1)N(C)S(=O)(=O)c1ccc(F)cc1 [Example 5, (S)-2-[(4-Fluoro-benzenesulfonyl)-methyl-amino]-3-methyl-N-(4′-trifluoromethyl-biphenyl-3-ylmethyl)-butyramide]	1620
CN(CC(=O)NCc1ccc(F)c(-c2ccc(C(F)(F)F)cc2)c1)S(=O)(=O)c1ccc(F)cc1 [Example 8, 2-[(4-Fluoro-benzenesulfonyl)-methyl-amino]-N-(6-fluoro-4′-trifluoromethyl-biphenyl-3-ylmethyl)-acetamide]	150
CC(C)N(CC(=O)NCc1cc(-c2ccc(C(F)(F)F)cc2)ncn1)S(=O)(=O)c1ccc(F)cc1 [Example 27, 2-[(4-Fluoro-benzenesulfonyl)-isopropyl-amino]-N-[6-(4-trifluoromethyl-phenyl)-pyrimidin-4-ylmethyl]-acetamide]	52
CN(CC(=O)NCc1cccc(-c2ccc(C(F)(F)F)cn2)c1)S(=O)(=O)c1ccc(F)cc1 [Example 41, 2-[(4-Fluoro-benzenesulfonyl)-methyl-amino]-N-[3-(5-trifluoromethyl-pyridin-2-yl)-benzyl]-acetamide]	290
CC(C)N(CC(=O)NCc1ccc(-c2cccc(C(F)(F)F)c2)cc1)S(=O)(=O)c1ccc(F)cc1 [Example 34, 2-[(4-Fluoro-benzenesulfonyl)-isopropyl-amino]-N-(3′-trifluoromethyl-biphenyl-4-ylmethyl)-acetamide]	3660
CC(C)N([C@@H](C)C(=O)NCc1cc(-c2ccc(C(F)(F)F)cc2)ncn1)S(=O)(=O)c1ccc(F)cc1 [Example 32, (S)-2-[(4-Fluoro-benzenesulfonyl)-isopropyl-amino]-N-[6-(4-trifluoromethyl-phenyl)-pyrimidin-4-ylmethyl]-propionamide]	190
CN(C(CO)C(=O)NCc1cccc(-c2ccc(C(F)(F)F)cc2)c1)S(=O)(=O)c1ccc(F)cc1 (stereo not shown) [Example 51, 2-[(4-Fluoro-benzenesulfonyl)-methyl-amino]-3-hydroxy-N-(4′-trifluoromethyl-biphenyl-3-ylmethyl)-propionamide]	130
CCN(CC(=O)NCc1ccc(-c2ccc(C(F)(F)F)cc2)cc1)S(=O)(=O)c1ccc(F)cc1 [Example 17, 2-[Ethyl-(4-fluoro-benzenesulfonyl)-amino]-N-(4′-trifluoromethyl-biphenyl-4-ylmethyl)-acetamide]	4830

Further molecules by falling IC50, results first:

IC50 [nM]	Compound
550	CC(C)N(CC(=O)NCc1cc(-c2ccc(C(F)(F)F)cc2)ncn1)S(=O)(=O)c1cccnc1 [Example 56, 2-[Isopropyl-(pyridine-3-sulfonyl)-amino]-N-[6-(4-trifluoromethyl-phenyl)-pyrimidin-4-ylmethyl]-acetamide]
230	CC(C)N(CC(=O)NCc1ccnc(-c2ccc(C(F)(F)F)nc2)c1)S(=O)(=O)c1ccc(F)cc1 [Example 58, 2-[(4-Fluoro-benzenesulfonyl)-isopropyl-amino]-N-(6′-trifluoromethyl-[2,3′]bipyridinyl-4-ylmethyl)-acetamide]
170	CC(C)N(CC(=O)NCc1cccc(-c2ccc(C(F)(F)F)nn2)c1)S(=O)(=O)c1ccc(F)cc1 [Example 66, 2-[(4-Fluoro-benzenesulfonyl)-isopropyl-amino]-N-[3-(6-trifluoromethyl-pyridazin-3-yl)-benzyl]-acetamide]
160	CC(O)CN(CC(=O)NCc1cccc(-c2ccc(C(F)(F)F)cc2)c1)S(=O)(=O)c1ccc(F)cc1 (stereo not shown) [Example 20, 2-[(4-Fluoro-benzenesulfonyl)-(2-hydroxy-propyl)-amino]-N-(4′-trifluoromethyl-biphenyl-3-ylmethyl)-acetamide]
140	CC(C)N(CC(=O)NCc1cc(-c2ccc(C(F)(F)F)nc2)ncn1)S(=O)(=O)c1ccc(F)cc1 [Example 61, 2-[(4-Fluoro-benzenesulfonyl)-isopropyl-amino]-N-[6-(6-trifluoromethyl-pyridin-3-yl)-pyrimidin-4-ylmethyl]-acetamide]
97	CN(CC(=O)NCc1cc(-c2ccc(C(F)(F)F)cc2)ncn1)S(=O)(=O)c1ccc(F)cc1 [Example 21, 2-[(4-Fluoro-benzenesulfonyl)-methyl-amino]-N-[6-(4-trifluoromethyl-phenyl)-pyrimidin-4-ylmethyl]-acetamide]
54	CC(C)N(CC(=O)NCc1ccc(F)c(-c2ccc(C(F)(F)F)cc2)c1)S(=O)(=O)c1ccc(F)cc1 [Example 35, 2-[(4-Fluoro-benzenesulfonyl)-isopropyl-amino]-N-(6-fluoro-4′-trifluoromethyl-biphenyl-3-ylmethyl)-acetamide]
48	CC(C)N(CC(=O)NCc1ccc(F)c(-c2cnc(C(F)(F)F)nc2)c1)S(=O)(=O)c1ccc(F)cc1 [Example 70, 2-[(4-Fluoro-benzenesulfonyl)-isopropyl-amino]-N-[4-fluoro-3-(2-trifluoromethyl-pyrimidin-5-yl)-benzyl]-acetamide]
48	CN(CC(=O)NCc1cc(-c2ccc(C(F)(F)F)cc2)ccc1F)S(=O)(=O)c1ccc(F)cc1 [Example 12, 2-[(4-Fluoro-benzenesulfonyl)-methyl-amino]-N-(4-fluoro-4′-trifluoromethyl-biphenyl-3-ylmethyl)-acetamide]
47	CC(C)N(CC(=O)NCc1cccc(-c2cnc(C(F)(F)F)nc2)c1)S(=O)(=O)c1ccc(F)cc1 [Example 68, 2-[(4-Fluoro-benzenesulfonyl)-isopropyl-amino]-N-[3-(2-trifluoromethyl-pyrimidin-5-yl)-benzyl]-acetamide]
42	CN(CC(=O)NCc1cc(-c2ccc(C(F)(F)F)cc2)ncn1)S(=O)(=O)c1ccc(Cl)s1 [Example 25, 2-[(5-chloro-thiophene-2-sulfonyl)-methyl-amino]-N-[6-(4-trifluoromethyl-phenyl)-pyrimidin-4-ylmethyl]-acetamide]
37	CCN(CC(=O)NCc1ccc(F)c(-c2ccc(C(F)(F)F)cc2)c1)S(=O)(=O)c1ccc(F)cc1 [Example 14, 2-[Ethyl-(4-fluoro-benzenesulfonyl)-amino]-N-(6-fluoro-4′-trifluoromethyl-biphenyl-3-ylmethyl)-acetamide]
12	CC(C)N(CC(=O)NCc1cc(F)cc(-c2ccc(C(F)(F)F)cc2)c1)S(=O)(=O)c1ccc(F)cc1 [Example 36, 2-[(4-Fluoro-benzenesulfonyl)-isopropyl-amino]-N-(5-fluoro-4′-trifluoromethyl-biphenyl-3-ylmethyl)-acetamide]
